# Source: patent US20260207602A1, “EGFR INHIBITORS” (Blueprint Medicines Corporation, priority 2022, published 2026)
# Tests used:
# EGFR L858R = target: T1, EGFR L858R (Homo sapiens, UniProt P00533, L858R); test: Biochemical EGFR inhibition assay (Caliper mobility shift), EGFR L858R; details: biochemical Caliper mobility shift assay, EGFR L858R enzyme; read-out: Enz EGFR L858R IC50
# T1 construct: purchased SignalChem E10-122BG
# Method in brief: (§1)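 Recombinant mutant enzyme, 2.5 µM fluorescent peptide, ATP at 1.0 mM or Km, 1.0% DMSO, 25 °C. Stopped with EDTA once 10–20% of peptide was phosphorylated; apparent IC50 derived from electrophoretic product/substrate separation.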
# EGFR (d746-750) = target: T2, EGFR (d746-750) (Homo sapiens, UniProt P00533, DEL746-750); test: Biochemical EGFR inhibition assay (Caliper mobility shift), EGFR (d746-750); details: biochemical Caliper mobility shift assay, EGFR Exon 19-del enzyme; read-out: Enz EGFR Exon 19-del IC50
# T2 construct: purchased SignalChem E10-122JG
# T2 sequence (P00533 with tags, fused parts or gaps DEL746-750 limits assumed): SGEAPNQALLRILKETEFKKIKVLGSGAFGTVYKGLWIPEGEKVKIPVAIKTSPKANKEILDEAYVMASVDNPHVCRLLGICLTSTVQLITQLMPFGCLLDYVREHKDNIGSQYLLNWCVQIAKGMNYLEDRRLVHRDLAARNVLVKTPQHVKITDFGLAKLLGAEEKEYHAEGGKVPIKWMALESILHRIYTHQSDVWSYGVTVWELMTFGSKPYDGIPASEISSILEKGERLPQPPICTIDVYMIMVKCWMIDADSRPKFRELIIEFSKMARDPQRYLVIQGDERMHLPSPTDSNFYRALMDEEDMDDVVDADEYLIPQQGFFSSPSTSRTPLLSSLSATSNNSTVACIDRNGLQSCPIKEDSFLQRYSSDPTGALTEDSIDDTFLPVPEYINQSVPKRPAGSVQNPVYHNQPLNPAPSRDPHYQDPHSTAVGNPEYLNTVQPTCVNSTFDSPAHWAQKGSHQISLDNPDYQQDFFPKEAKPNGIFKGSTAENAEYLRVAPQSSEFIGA
# Method in brief: as §1
# [1] = target: intracellular phosphorylation of EGFR (Tyr1068) in PC-9 cells (Homo sapiens, UniProt P00533, DEL746-750); test: PC-9 pEGFR AlphaLISA assay; assay type: cell-based; details: 4 hours incubation, read-out: Phos EGFR PC9 IC50
# intracellular phosphorylation of EGFR (Tyr1068) in PC-9 cells, sequence (P00533 with tags, fused parts or gaps DEL746-750): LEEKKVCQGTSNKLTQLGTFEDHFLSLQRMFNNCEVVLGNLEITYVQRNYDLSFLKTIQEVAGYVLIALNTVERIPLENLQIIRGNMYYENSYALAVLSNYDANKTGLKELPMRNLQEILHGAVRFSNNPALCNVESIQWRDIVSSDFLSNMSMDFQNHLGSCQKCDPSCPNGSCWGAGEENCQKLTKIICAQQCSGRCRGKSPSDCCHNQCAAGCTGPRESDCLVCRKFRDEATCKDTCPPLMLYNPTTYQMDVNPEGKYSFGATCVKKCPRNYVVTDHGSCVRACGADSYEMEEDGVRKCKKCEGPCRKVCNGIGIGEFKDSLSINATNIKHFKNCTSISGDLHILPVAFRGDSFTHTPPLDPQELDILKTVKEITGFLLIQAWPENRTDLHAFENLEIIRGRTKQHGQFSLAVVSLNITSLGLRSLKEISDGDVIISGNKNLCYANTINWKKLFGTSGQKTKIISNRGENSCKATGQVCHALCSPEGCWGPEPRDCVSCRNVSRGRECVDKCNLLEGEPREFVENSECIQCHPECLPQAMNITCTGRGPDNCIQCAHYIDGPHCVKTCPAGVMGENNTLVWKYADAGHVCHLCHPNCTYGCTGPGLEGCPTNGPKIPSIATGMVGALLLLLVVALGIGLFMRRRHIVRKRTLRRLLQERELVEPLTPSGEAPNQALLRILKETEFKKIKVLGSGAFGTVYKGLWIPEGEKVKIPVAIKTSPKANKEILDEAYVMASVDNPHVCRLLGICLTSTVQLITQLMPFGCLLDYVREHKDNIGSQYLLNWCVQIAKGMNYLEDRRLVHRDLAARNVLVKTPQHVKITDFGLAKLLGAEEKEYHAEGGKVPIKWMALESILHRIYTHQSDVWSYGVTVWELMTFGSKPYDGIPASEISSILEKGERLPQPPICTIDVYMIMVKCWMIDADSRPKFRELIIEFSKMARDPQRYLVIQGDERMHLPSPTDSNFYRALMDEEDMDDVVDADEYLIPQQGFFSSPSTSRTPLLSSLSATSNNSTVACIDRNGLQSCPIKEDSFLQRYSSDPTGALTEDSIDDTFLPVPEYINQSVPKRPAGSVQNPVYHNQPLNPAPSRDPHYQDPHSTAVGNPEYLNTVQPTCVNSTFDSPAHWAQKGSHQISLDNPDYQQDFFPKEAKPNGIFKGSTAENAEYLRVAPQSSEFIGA
# Method in brief: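 PC-9 cells (EGFR del746-750) in phenol-free DMEM/10% FBS, adhered overnight, then exposed to 10-point 4-fold compound dilutions for 4 h at 37 °C. Lysates assayed for pEGFR Tyr1068 by AlphaLISA SureFire Ultra; IC50 from percent pEGFR inhibition vs log concentration.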
# T1 sequence (P00533 25-1210 L858R): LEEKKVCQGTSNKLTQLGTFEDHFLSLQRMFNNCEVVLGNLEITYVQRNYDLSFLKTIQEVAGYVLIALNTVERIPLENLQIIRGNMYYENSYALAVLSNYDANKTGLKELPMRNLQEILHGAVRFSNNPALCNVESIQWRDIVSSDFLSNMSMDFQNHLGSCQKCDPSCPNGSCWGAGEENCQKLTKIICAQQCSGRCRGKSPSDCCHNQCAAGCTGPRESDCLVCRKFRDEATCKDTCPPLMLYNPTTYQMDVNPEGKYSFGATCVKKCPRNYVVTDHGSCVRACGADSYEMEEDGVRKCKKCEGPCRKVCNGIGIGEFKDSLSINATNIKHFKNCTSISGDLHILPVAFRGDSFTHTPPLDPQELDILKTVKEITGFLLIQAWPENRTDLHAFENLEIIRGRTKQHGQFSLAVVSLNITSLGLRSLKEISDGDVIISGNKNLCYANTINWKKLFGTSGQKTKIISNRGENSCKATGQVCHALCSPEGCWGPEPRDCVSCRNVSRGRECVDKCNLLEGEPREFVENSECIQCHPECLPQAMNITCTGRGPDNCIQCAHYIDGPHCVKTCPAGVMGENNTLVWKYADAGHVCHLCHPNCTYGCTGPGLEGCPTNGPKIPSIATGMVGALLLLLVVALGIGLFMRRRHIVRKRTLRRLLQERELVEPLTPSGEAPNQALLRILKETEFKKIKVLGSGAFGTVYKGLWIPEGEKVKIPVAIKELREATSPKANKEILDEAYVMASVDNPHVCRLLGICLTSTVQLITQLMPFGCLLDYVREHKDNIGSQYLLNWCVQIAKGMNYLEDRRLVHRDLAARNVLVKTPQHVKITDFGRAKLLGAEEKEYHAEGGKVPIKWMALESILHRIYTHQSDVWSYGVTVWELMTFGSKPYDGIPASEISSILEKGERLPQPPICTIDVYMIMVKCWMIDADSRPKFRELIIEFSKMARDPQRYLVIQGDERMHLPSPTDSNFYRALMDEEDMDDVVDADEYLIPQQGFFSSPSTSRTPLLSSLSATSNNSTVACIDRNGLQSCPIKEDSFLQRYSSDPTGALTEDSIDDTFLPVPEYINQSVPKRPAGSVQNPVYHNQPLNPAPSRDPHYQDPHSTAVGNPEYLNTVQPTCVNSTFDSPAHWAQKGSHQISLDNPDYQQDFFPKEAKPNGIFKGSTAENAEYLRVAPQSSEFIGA
IC50 (EGFR L858R) [nM],IC50 (EGFR (d746-750)) [nM],IC50 [1] [nM],Structure (SMILES)
≤ 10,≤ 10,≤ 10,"C[C@@H](Oc1cc(-c2cnn(C)c2)cc2ncnc(Nc3ccc4ncsc4c3)c12)[C@H](C)N(C)C (single isomer, unassigned) [Example 145]"
> 50.1,10.1 to 50,10.1 to 50,"C[C@@H]1CN(c2cc(O[C@@H](C)CN(C)C)c3c(Nc4ccc5ncsc5c4)ncnc3c2)C[C@H](C)O1 (single isomer, unassigned) [Example 149]"
10.1 to 50,≤ 10,≤ 10,"CC(CN(C)C)Oc1cc(N2CC(C)OC(C)C2)cc2ncnc(Nc3ccc4ncsc4c3)c12 (single isomer, unassigned) [Example 150]"
≤ 10,≤ 10,≤ 10,"CN(C)C[C@@H](Oc1cc(-c2cnn(C)c2)cc2ncnc(Nc3ccc4ncsc4c3)c12)C(F)F (single isomer, unassigned) [Example 151]"
≤ 10,≤ 10,≤ 10,"C[C@H](CN(C)C)Oc1cc(N2CC[C@@H](C(C)(C)O)C2)cc2ncnc(Nc3ccc4ncsc4c3)c12 (single isomer, unassigned) [Example 155]"
≤ 10,≤ 10,≤ 10,"C[C@H](Oc1cc(N2CCN(C)C2=O)cc2ncnc(Nc3ccc4ncsc4c3)c12)C1COC1 (single isomer, unassigned) [Example 157]"
≤ 10,≤ 10,10.1 to 50,"C[C@H](Oc1cc(N2CCN(C)C2=O)cc2ncnc(Nc3ccc4ncsc4c3)c12)C1COC1 (single isomer, unassigned) [Example 158]"
10.1 to 50,≤ 10,10.1 to 50,"C[C@@H](CN(C)C)Oc1cc(-c2cnn(C)c2)cc2ncnc(Nc3ccc4ncsc4c3)c12 (single isomer, unassigned) [Example 159, (S)—N-(5-((1-(dimethylamino)propan-2-yl)oxy)-7-(1-methyl-1H-pyrazol-4-yl)quinazolin-4-yl)benzo[d]thiazol-6-amine or (R)—N-(5-((1-(dimethylamino)propan-2-yl)oxy)-7-(1-methyl-1H-pyrazol-4-yl)quinazolin-4-yl)benzo[d]thiazol-6-amine]"
≤ 10,≤ 10,≤ 10,"C[C@@H](CN(C)C)Oc1cc(-c2cnn(C)c2)cc2ncnc(Nc3ccc4ncsc4c3)c12 (single isomer, unassigned) [Example 160, (R)—N-(5-((1-(dimethylamino)propan-2-yl)oxy)-7-(1-methyl-1H-pyrazol-4-yl)quinazolin-4-yl)benzo[d]thiazol-6-amine or (S)—N-(5-((1-(dimethylamino)propan-2-yl)oxy)-7-(1-methyl-1H-pyrazol-4-yl)quinazolin-4-yl)benzo[d]thiazol-6-amine]"
≤ 10,≤ 10,≤ 10,"COc1nn(C)cc1-c1cc(O[C@H](C)C2COC2)c2c(Nc3ccc4ncsc4c3)ncnc2c1 (single isomer, unassigned) [Example 170]"
≤ 10,≤ 10,≤ 10,"CN(C)C[C@H](Oc1cc(-c2cnn(C)c2)cc2ncnc(Nc3ccc4ncsc4c3)c12)C(F)(F)F (single isomer, unassigned) [Example 178]"
> 50.1,10.1 to 50,> 50.1,"CN(C)C[C@H](Oc1cc(-c2cnn(C)c2)cc2ncnc(Nc3ccc4ncsc4c3)c12)C(F)(F)F (single isomer, unassigned) [Example 179]"
≤ 10,≤ 10,10.1 to 50,"COC[C@H](C)Oc1cc(N2CCN(C)CC2)cc2ncnc(Nc3ccc4ncsc4c3)c12 (single isomer, unassigned) [Example 205]"
> 50.1,10.1 to 50,> 50.1,"COC[C@@H](C)Oc1cc(N2CCN(C)C[C@H]2C)cc2ncnc(Nc3ccc4ncsc4c3)c12 (single isomer, unassigned) [Example 211]"
10.1 to 50,10.1 to 50,> 50.1,"COC[C@@H](C)Oc1cc(N2CCN(C)C[C@H]2C)cc2ncnc(Nc3ccc4ncsc4c3)c12 (single isomer, unassigned) [Example 212]"
≤ 10,≤ 10,10.1 to 50,"C[C@H](CO)Oc1cc(N2CCN(C)CC2)cc2ncnc(Nc3ccc4ncsc4c3)c12 (single isomer, unassigned) [Example 293]"

# More lines, now with the values behind:
Structure (SMILES),IC50 (EGFR L858R) [nM],IC50 (EGFR (d746-750)) [nM],IC50 [1] [nM]
"Cn1cc(-c2cc(OC[C@]34COC[C@H]3C4)c3c(Nc4ccc5ncsc5c4)ncnc3c2)cn1 (single isomer, unassigned) [Example 147]",10.1 to 50,≤ 10,10.1 to 50
"Cn1cc(-c2cc(OC[C@]34COC[C@H]3C4)c3c(Nc4ccc5ncsc5c4)ncnc3c2)cn1 (single isomer, unassigned) [Example 148]",≤ 10,≤ 10,10.1 to 50
"CN(C)[C@H]1CC[C@@H]1Oc1cc(-c2cnn(C)c2)cc2ncnc(Nc3ccc4ncsc4c3)c12 (single isomer, unassigned) [Example 154]",≤ 10,≤ 10,≤ 10
"CN1CC[C@@H](F)[C@@H](Oc2cc(-c3cnn(C)c3)cc3ncnc(Nc4ccc5ncsc5c4)c23)C1 (single isomer, unassigned) [Example 161]",≤ 10,≤ 10,≤ 10
"CN1CC[C@@H](F)[C@@H](Oc2cc(-c3cnn(C)c3)cc3ncnc(Nc4ccc5ncsc5c4)c23)C1 (single isomer, unassigned) [Example 162]",≤ 10,≤ 10,10.1 to 50
"COc1cc2ncnc(Nc3ccc4ncsc4c3)c2cc1-c1cnn(C2CCN(C)C[C@H]2F)c1 (single isomer, unassigned) [Example 166]",≤ 10,≤ 10,≤ 10
"COc1cc2ncnc(Nc3ccc4ncsc4c3)c2cc1-c1cnn(C2CCN(C)C[C@H]2F)c1 (single isomer, unassigned) [Example 167]",10.1 to 50,≤ 10,10.1 to 50
"CC(Oc1cc(-c2cn(C)nc2OC(F)F)cc2ncnc(Nc3ccc4ncsc4c3)c12)C1COC1 (single isomer, unassigned) [Example 172]",≤ 10,≤ 10,10.1 to 50
"CC(Oc1cc(-c2cn(C)nc2OC(F)F)cc2ncnc(Nc3ccc4ncsc4c3)c12)C1COC1 (single isomer, unassigned) [Example 173]",≤ 10,≤ 10,≤ 10
"C[C@@H](Oc1cc(-c2cn(C)n(C(F)F)c2=O)cc2ncnc(Nc3ccc4ncsc4c3)c12)C1COC1 (single isomer, unassigned) [Example 174]",≤ 10,≤ 10,≤ 10
"C[C@@H](Oc1cc(-c2cn(C)n(C(F)F)c2=O)cc2ncnc(Nc3ccc4ncsc4c3)c12)C1COC1 (single isomer, unassigned) [Example 175]",≤ 10,≤ 10,10.1 to 50
"C[C@@H](Oc1cc(-c2cnn(C)c2)cc2ncnc(Nc3ccc4ncsc4c3)c12)[C@H]1CNCCO1 (single isomer, unassigned) [Example 207]",≤ 10,≤ 10,≤ 10
"C[C@@H](Oc1cc(-c2cnn(C)c2)cc2ncnc(Nc3ccc4ncsc4c3)c12)[C@H]1CN(C)CCO1 (single isomer, unassigned) [Example 209]",≤ 10,≤ 10,≤ 10
"C[C@@H](Oc1cc(-c2cnn(C)c2)cc2ncnc(Nc3ccc4ncsc4c3F)c12)C(=O)N(C)C (single isomer, unassigned) [Example 279]",≤ 10,≤ 10,≤ 10
"C[C@H](Oc1cc(-c2cnn(C)c2)cc2ncnc(Nc3ccc4ncsc4c3F)c12)C(=O)N1CCOCC1 (single isomer, unassigned) [Example 282]",≤ 10,≤ 10,≤ 10
"COc1nn(C)cc1-c1cc(O[C@@H](C)C(=O)N(C)C)c2c(Nc3ccc4ncsc4c3F)ncnc2c1 (single isomer, unassigned) [Example 287]",≤ 10,≤ 10,≤ 10
"C[C@H](CO)Oc1cc(-c2cnn(C)c2)cc2ncnc(Nc3ccc4ncsc4c3F)c12 (single isomer, unassigned) [Example 289]",≤ 10,≤ 10,≤ 10
"C[C@@H](Oc1cc(-c2cnn(C(C)(C)CO)c2)cc2ncnc(Nc3ccc4ncsc4c3)c12)C1COC1 (single isomer, unassigned) [Example 291]",≤ 10,≤ 10,≤ 10
"C[C@H](CO)Oc1cc(N2CCN(C)CC2)cc2ncnc(Nc3ccc4ncsc4c3F)c12 (single isomer, unassigned) [Example 295]",10.1 to 50,≤ 10,≤ 10
"C[C@H](CO)Oc1cc(N2CCN(C)CC2)cc2ncnc(Nc3ccc4ncsc4c3F)c12 (single isomer, unassigned) [Example 296]",≤ 10,≤ 10,≤ 10
"C[C@H](CO)n1cc(-c2cc(O[C@H](C)C3COC3)c3c(Nc4ccc5ncsc5c4)ncnc3c2)cn1 (single isomer, unassigned) [Example 297]",≤ 10,≤ 10,≤ 10
